This is an account of results in US5214036A, “Benzoporphyrin derivatives for photodynamic therapy” (University of British Columbia, priority 1990, dated 1993).

For one data set, the system named is LDL. Nature of the data set: Step density gradient of BPD added to isolated lipoprotein fraction. In kind it is in vitro ADME, human. The following applies: added to lipoprotein fraction after separation of albumin, % of total added. On the procedure: (§1) (b) Determining BPD Plasma Distribution. Experiments were performed to determine the association of BPDs with plasma protein and lipoprotein fractions. When density ultracentrifugation was used for the analysis, 2 ml samples of human plasma were incubated for 18 hours at 4° C. in the presence of 100 μg of ^3 H-BPD-MA. The BPD-plasma solution was then adjusted to a density of 1.21 g/ml by the addition of solid KBr. A step gradient was prepared using stock KBr density solutions at 1.006, 1.019, and 1.063 g/ml, layered manually into the bottom of centrifuge tubes using a glass syringe and a narrow bore needle. The BPD-plasma solution was then layered into the bottom of the tube. Separation of the plasma proteins was accomplished by centrifugation in a Beckman SW 41 rotor for 24 hours at 40,000 rpm and 15° C. 0.5 ml fractions were collected, and the protein content of each fraction was monitored by measuring absorbance at 280 nm. 100 μl of each fraction was mixed with 5 ml Aquasol (NEN) and counted in a liquid scintillation counter.
(§2) To improve the HDL-albumin resolution, albumin was removed by ultracentrifugation. Plasma was mixed with ^14 C-BPD-MA and incubated for 18 hours at 4° C. The density of the mixture was then adjusted to 1.21 g/ml by the addition of solid KBr, followed by centrifugation at 40,000 rpm for 48 hours. […] The lipoprotein and lipoprotein-depleted fractions were counted for BPD-MA content. 82% of total ^14 C-BPD-MA added was recovered in the plasma lipoprotein fraction and 5% in the lipoprotein deficient fraction.
(§3) When albumin and other serum proteins were separated from the lipoprotein fraction before the addition of ^14 C-BPD-MA, a shift in binding was observed. After step density gradient separation, the majority of BPD-MA was still recovered with HDL (38% of total ^14 C-BPD-MA added); however in this case, the association with LDL and VLDL fractions appeared to be equivalent (17% with LDL and 18% with VLDL) (FIG. 5). […] Polyacrylamide gel electrophoresis of the HDL fractions from these density gradients confirmed that very little albumin was present. […]

The next data set deals with VLDL. The data set is described as above. In kind it is in vitro ADME, human. The following applies: added to lipoprotein fraction after separation of albumin, % of total added. On the procedure: as §1, §2, §3
The next data set has as its system HDL. Described as above. The data set is classed as in vitro ADME, human. The following applies: added to lipoprotein fraction after separation of albumin, % of total added. As for the experimental part: as §1, §2, §3
Data set [1] is described as follows: Absorption spectrum / absorption maximum. In kind it is physicochemical. The following applies: FIG. 3.
For data set [2] the following is noted: background; cited from earlier work.
The subject of data set [3] is high density lipoproteins (HDLs). The following applies: Barel et al.; cited from earlier work.

Turning to `C=Cc1c(C)c2cc3nc(cc4[nH]c(cc5nc(cc1[nH]2)C(C)=C5CCC(=O)O)c(CCC(=O)O)c4C)C1(C)C3=CC=C(C(=O)OC)C1C(=O)OC` (stereo not shown) [BPD-DA], in the data set with LDL, the “associated with LDL” value is listed as 13%. In addition, the “associated with VLDL” value in the data set on VLDL came out at 20%. Further, the “recovered with HDL” value in the data set on HDL is given as 54%. The major absorption peak entry in data set [1] is listed as “about 685 nm”.
As for `CC1=C(CCC(=O)O)c2cc3[nH]c(cc4nc(cc5[nH]c(cc1n2)c(C)c5C(C)O)C(C)=C4C(C)O)c(C)c3CCC(=O)O` (stereo not shown) [hematoporphyrin], in data set [2], the additional absorbance entry was “around 630 nm” and the maximum absorbance entry was “around 400 nm”. Further, in data set [3], the “affinity for high density lipoproteins” value was “higher affinity for high density lipoproteins (HDLs)”.
